# Experimental data: the NIST ThermoML archive (doi:10.1016/j.tca.2018.08.012)
# ± gives the expanded uncertainty stated by the source.
# Settings: DSC
Triple point temperature (Crystal),Triple point temperature (Crystal 1),Triple point temperature (Crystal 2),Structure (SMILES)
435.15 ± 10 K,–,–,Cc1ccc2c(c1)OCN(c1ccc(Cc3ccc(N4COc5cc(C)ccc5C4)cc3)cc1)C2
–,406.15 ± 10 K,390.15 ± 10 K,Cc1cc(C)c2c(c1)CN(c1ccc(Cc3ccc(N4COc5c(C)cc(C)cc5C4)cc3)cc1)CO2
–,357.15 ± 10 K,328.15 ± 10 K,"c1ccc2c(c1)CN(c1ccc(Cc3ccc(N4COc5ccccc5C4)cc3)cc1)CO2 [bis(4-(2H-benzo[e][1,3]oxazin-3(4H)-yl)phenyl)methane]"
–,432.15 ± 10 K,–,Cc1ccc2c(c1)CN(c1ccc(Cc3ccc(N4COc5ccc(C)cc5C4)cc3)cc1)CO2
